The results in this text go back to patent publication US20260356830A1, “COMPOUNDS FOR MODULATING RET PROTEIN” (Bristol-Myers Squibb Company, priority 2022, published 2026).

The target in this assay is T1, CCDC6-RET (Homo sapiens, UniProt P07949+Q16204+Q96SW2).
T1 construct: CCDC6 (natural N-terminal fusion partner, UniProt Q16204); endogenous in cells; host or cells: TPC-1 (parental, papillary thyroid carcinoma)
Briefly: Cellular RET degradation, AlphaLISA, TPC-1 cell line. The class given is cell-based. Conditions: for Dmax: TPC1, human, 24 h, read-out: Cell Density TPC-1/CCDC6-RET Ymax %; for DC50: read-out: Cell Density TPC-1/CCDC6-RET DC50, half-maximal degradation concentration, TPC-1 (CCDC6-RET), 24 hrs. Put shortly:
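TPC-1 papillary thyroid carcinoma cells (endogenous CCDC6-RET) in DMEM with 2% FBS, compound-treated 24 h at 37 °C. RET in lysates quantified by AlphaLISA luminescence, normalized to media-only and DMSO wells; DC50 and maximal degradation from 4-parameter logistic fit.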
(In general: Alpha assays give light when donor and acceptor beads are brought close together.)

T1 sequence (Q16204+P07949 fused): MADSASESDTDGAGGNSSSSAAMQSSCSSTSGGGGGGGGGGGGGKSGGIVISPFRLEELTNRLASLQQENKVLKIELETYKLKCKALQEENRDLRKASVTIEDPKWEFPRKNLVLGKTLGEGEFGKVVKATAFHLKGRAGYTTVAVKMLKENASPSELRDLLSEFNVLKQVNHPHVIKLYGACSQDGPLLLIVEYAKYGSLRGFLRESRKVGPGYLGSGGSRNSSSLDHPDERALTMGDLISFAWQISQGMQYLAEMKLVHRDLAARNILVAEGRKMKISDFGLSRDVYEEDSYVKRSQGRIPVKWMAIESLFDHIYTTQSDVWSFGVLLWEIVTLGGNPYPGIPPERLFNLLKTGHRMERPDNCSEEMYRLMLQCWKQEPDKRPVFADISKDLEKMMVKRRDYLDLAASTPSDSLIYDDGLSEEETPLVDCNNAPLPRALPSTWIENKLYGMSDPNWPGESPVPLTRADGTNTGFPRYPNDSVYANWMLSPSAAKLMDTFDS
T1 sequence (Q96SW2 whole entry, the tested form may be a part): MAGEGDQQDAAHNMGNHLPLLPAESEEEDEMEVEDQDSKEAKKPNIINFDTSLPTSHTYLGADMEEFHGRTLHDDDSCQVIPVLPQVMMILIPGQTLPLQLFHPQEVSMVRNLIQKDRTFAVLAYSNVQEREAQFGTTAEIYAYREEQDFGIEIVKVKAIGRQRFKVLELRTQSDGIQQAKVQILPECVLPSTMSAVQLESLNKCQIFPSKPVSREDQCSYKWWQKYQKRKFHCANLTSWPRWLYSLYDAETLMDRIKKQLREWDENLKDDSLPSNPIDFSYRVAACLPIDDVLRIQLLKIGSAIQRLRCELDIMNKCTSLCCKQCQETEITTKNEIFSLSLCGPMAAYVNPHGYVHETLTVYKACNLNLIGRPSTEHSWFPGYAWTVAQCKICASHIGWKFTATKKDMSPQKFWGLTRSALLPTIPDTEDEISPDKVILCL
T1 sequence (Q16531 whole entry partner, the tested form may be a part): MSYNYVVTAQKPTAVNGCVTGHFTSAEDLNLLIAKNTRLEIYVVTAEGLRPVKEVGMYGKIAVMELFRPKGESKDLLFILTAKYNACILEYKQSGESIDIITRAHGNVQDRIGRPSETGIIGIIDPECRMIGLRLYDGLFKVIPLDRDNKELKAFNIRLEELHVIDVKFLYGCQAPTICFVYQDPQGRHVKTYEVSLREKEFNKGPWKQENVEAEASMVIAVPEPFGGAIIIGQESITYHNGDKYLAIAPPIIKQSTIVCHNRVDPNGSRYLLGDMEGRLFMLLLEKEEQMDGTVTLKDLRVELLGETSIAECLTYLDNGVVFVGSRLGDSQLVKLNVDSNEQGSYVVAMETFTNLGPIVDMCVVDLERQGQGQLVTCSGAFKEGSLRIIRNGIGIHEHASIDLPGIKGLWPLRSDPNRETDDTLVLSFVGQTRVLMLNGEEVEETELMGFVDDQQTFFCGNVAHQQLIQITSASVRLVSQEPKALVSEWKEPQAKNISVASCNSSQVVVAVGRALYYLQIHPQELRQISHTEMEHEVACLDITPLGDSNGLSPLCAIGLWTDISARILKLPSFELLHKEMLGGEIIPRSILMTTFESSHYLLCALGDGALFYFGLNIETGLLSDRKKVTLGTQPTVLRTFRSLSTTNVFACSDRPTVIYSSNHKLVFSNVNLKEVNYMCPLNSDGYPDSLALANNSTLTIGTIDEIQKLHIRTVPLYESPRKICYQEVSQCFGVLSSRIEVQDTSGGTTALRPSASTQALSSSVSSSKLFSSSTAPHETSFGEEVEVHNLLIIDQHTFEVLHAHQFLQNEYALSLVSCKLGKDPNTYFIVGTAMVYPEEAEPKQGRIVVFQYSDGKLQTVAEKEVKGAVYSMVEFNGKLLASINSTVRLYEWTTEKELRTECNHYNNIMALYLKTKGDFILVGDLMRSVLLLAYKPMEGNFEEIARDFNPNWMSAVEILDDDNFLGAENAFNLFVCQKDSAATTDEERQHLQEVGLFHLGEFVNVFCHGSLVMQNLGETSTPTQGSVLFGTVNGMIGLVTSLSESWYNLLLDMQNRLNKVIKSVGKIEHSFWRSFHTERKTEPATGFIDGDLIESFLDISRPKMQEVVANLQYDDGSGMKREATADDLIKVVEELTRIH

On to `CCOc1cc(-c2ccc(N3CCC(COCc4cn(CCCN5CCN(c6ccc7c(c6)CN(C6CCC(=O)NC6=O)C7=O)CC5)nn4)(NC(=O)c4cc(F)ccc4F)CC3)nc2)c2c(C#N)cnn2c1` (centres unmarked) [Example 50, N-(1-(5-(3-cyano-6-ethoxypyrazolo[1,5-a]pyridin-4-yl)pyridin-2-yl)-4-(((1-(3-(4-(2-(2,6-dioxopiperidin-3-yl)-1-oxoisoindolin-5-yl)piperazin-1-yl)propyl)-1H-1,2,3-triazol-4-yl)methoxy)methyl)piperidin-4-yl)-2,5-difluorobenzamide], for which the Dmax lay in the range of 60 to 90% and the DC50 lay in the range of 0.002 to 0.01 µM.
On to `CCOc1cc(-c2ccc(N3CCC(CN4CCN(CCC(=O)N5CCC(c6ccc7c(c6)C(=O)N(C6CCC(=O)NC6=O)C7=O)CC5)CC4)(NC(=O)c4cc(F)ccc4F)CC3)nc2)c2c(C#N)cnn2c1` (centres unmarked) [Example 117, N-[1-(5-{3-cyano-6-ethoxypyrazolo[1,5-a]pyridin-4-yl}pyridin-2-yl)-4-{[4-(3-{4-[2-(2,6-dioxopiperidin-3-yl)-1,3-dioxo-2,3-dihydro-1H-isoindol-5-yl]piperidin-1-yl}-3-oxopropyl)piperazin-1-yl]methyl}piperidin-4-yl]-2,5-difluorobenzamide], for which the Dmax was over 90% and the DC50 is 0.002 to 0.01 µM.
Take `CCOc1cc(-c2ccc(N3CCC(NC(=O)c4cc(F)ccc4F)(C(=O)NCCCCN4CCN(c5ccc6c(c5)CN(C5CCC(=O)NC5=O)C6=O)CC4)CC3)nc2)c2c(C#N)cnn2c1` (centres unmarked) [Example 154, 1-(5-{3-cyano-6-ethoxypyrazolo[1,5-a]pyridin-4-yl}pyridin-2-yl)-4-(2,5-difluorobenzamido)-N-(4-{4-[2-(2,6-dioxopiperidin-3-yl)-1-oxo-2,3-dihydro-1H-isoindol-5-yl]piperazin-1-yl}butyl)piperidine-4-carboxamide]: the Dmax lay in the range of 60 to 90% and the DC50 lay within 0.01 to 0.1 µM.
With `CCOc1cc(-c2ccc(N3CCC(NC(=O)c4cc(F)ccc4F)(C(=O)NCCCCCCN4CCN(c5ccc6c(c5)CN(C5CCC(=O)NC5=O)C6=O)CC4)CC3)nc2)c2c(C#N)cnn2c1` (centres unmarked) [Example 155, 1-(5-{3-cyano-6-ethoxypyrazolo[1,5-a]pyridin-4-yl}pyridin-2-yl)-4-(2,5-difluorobenzamido)-N-(6-{4-[2-(2,6-dioxopiperidin-3-yl)-1-oxo-2,3-dihydro-1H-isoindol-5-yl]piperazin-1-yl}hexyl)piperidine-4-carboxamide], the Dmax is 60 to 90% and the DC50 is under 0.002 µM.
In the same order, the values of `CCOc1cc(-c2ccc(N3CCC(CN(C)C(=O)CCCCCCN4CCC(c5ccc6c(c5)C(=O)N(C5CCC(=O)NC5=O)C6)CC4)(NC(=O)c4cc(F)ccc4F)CC3)nc2)c2c(C#N)cnn2c1` (centres unmarked) [Example 146, N-[1-(5-{3-cyano-6-ethoxypyrazolo[1,5-a]pyridin-4-yl}pyridin-2-yl)-4-[(7-{4-[2-(2,6-dioxopiperidin-3-yl)-3-oxo-2,3-dihydro-1H-isoindol-5-yl]piperidin-1-yl}-N-methylheptanamido)methyl]piperidin-4-yl]-2,5-difluorobenzamide] are over 90% and 0.01 to 0.1 µM.
On the same counts, the results for `CCOc1cc(-c2ccc(N3CCC(CN4CCN(C5CN(C(=O)COc6ccc7c(c6)CN(C6CCC(=O)NC6=O)C7=O)C5)CC4)(NC(=O)c4cc(F)ccc4F)CC3)nc2)c2c(C#N)cnn2c1` (centres unmarked) [Example 65, N-[1-(5-{3-cyano-6-ethoxypyrazolo[1,5-a]pyridin-4-yl}pyridin-2-yl)-4-({4-[1-(2-{[2-(2,6-dioxopiperidin-3-yl)-1-oxo-2,3-dihydro-1H-isoindol-5-yl]oxy}acetyl)azetidin-3-yl]piperazin-1-yl}methyl)piperidin-4-yl]-2,5-difluorobenzamide] are 60 to 90% and 0.002 to 0.01 µM.
Turning to `CCOc1cc(-c2ccc(N3CCC(CN4CCC5(CC4)CCN(C(=O)c4ccc6c(c4)C(=O)N(C4CCC(=O)NC4=O)C6)CC5)(NC(=O)c4cc(F)ccc4F)CC3)nc2)c2c(C#N)cnn2c1` (centres unmarked) [Example 96, N-[1-(5-{3-cyano-6-ethoxypyrazolo[1,5-a]pyridin-4-yl}pyridin-2-yl)-4-({9-[2-(2,6-dioxopiperidin-3-yl)-3-oxo-2,3-dihydro-1H-isoindole-5-carbonyl]-3,9-diazaspiro[5.5]undecan-3-yl}methyl)piperidin-4-yl]-2,5-difluorobenzamide], the Dmax is 60 to 90% and the DC50 was 0.01 to 0.1 µM.
For `CCOc1cc(-c2ccc(N3CCC(NC(=O)c4cc(F)ccc4F)(C(=O)NCCCCCCCCCCNc4ccc5c(N6CCC(=O)NC6=O)nn(C)c5c4)CC3)nc2)c2c(C#N)cnn2c1` [Example 153, 1-(5-{3-cyano-6-ethoxypyrazolo[1,5-a]pyridin-4-yl}pyridin-2-yl)-4-(2,5-difluorobenzamido)-N-(10-{[3-(2,4-dioxo-1,3-diazinan-1-yl)-1-methyl-1H-indazol-6-yl]amino}decyl)piperidine-4-carboxamide], the Dmax is over 90% and the DC50 was 0.002 to 0.01 µM.
In the case of `CCOc1cc(-c2ccc(N3CCC(Cc4ccccc4)(NC(=O)CN4CCC(CN5CCC(c6ccc7c(c6)C(=O)N(C6CCC(=O)NC6=O)C7)CC5)CC4)CC3)nc2)c2c(C#N)cnn2c1` (centres unmarked) [Example 57, N-[4-benzyl-1-[5-(3-cyano-6-ethoxy-pyrazolo[1,5-a]pyridin-4-yl)-2-pyridyl]-4-piperidyl]-2-[4-[[4-[2-(2,6-dioxo-3-piperidyl)-3-oxo-isoindolin-5-yl]-1-piperidyl]methyl]-1-piperidyl]acetamide], the Dmax was in the range of 60 to 90% and the DC50 lay in the range of 0.1 to 2 µM.
On to `CCOc1cc(-c2ccc(N3CCC(CN4CCN(C(=O)CCCCN5CCN(c6ccc7c(c6)C(=O)N(C6CCC(=O)NC6=O)C7)CC5)CC4)(NC(=O)c4cc(F)ccc4F)CC3)nc2)c2c(C#N)cnn2c1` (centres unmarked) [Example 13, N-(1-(5-(3-cyano-6-ethoxypyrazolo[1,5-a]pyridin-4-yl)pyridin-2-yl)-4-((4-(5-(4-(2-(2,6-dioxopiperidin-3-yl)-3-oxoisoindolin-5-yl)piperazin-1-yl)pentanoyl)piperazin-1-yl)methyl)piperidin-4-yl)-2,5-difluorobenzamide], for which the Dmax was over 90% and the DC50 was under 0.002 µM.
With `CCOc1cc(-c2ccc(N3CCC(CN4CCN(CCOCCC(=O)N5CCN(c6ccc7c(c6)CN(C6CCC(=O)NC6=O)C7=O)CC5)CC4)(NC(=O)c4cc(F)ccc4F)CC3)nc2)c2c(C#N)cnn2c1` (centres unmarked) [Example 100, N-[1-(5-{3-cyano-6-ethoxypyrazolo[1,5-a]pyridin-4-yl}pyridin-2-yl)-4-({4-[2-(3-{4-[2-(2,6-dioxopiperidin-3-yl)-1-oxo-2,3-dihydro-1H-isoindol-5-yl]piperazin-1-yl}-3-oxopropoxy)ethyl]piperazin-1-yl}methyl)piperidin-4-yl]-2,5-difluorobenzamide], the Dmax is over 90% and the DC50 was in the range of 0.002 to 0.01 µM.
For `CCOc1cc(-c2ccc(N3CCC(CN4CCN(CC5CCN(C(=O)Cc6ccc7c(c6)CN(C6CCC(=O)NC6=O)C7=O)CC5)CC4)(NC(=O)c4cc(F)ccc4F)CC3)nc2)c2c(C#N)cnn2c1` (centres unmarked) [Example 112, N-[1-(5-{3-cyano-6-ethoxypyrazolo[1,5-a]pyridin-4-yl}pyridin-2-yl)-4-({4-[(1-{2-[2-(2,6-dioxopiperidin-3-yl)-1-oxo-2,3-dihydro-1H-isoindol-5-yl]acetyl}piperidin-4-yl)methyl]piperazin-1-yl}methyl)piperidin-4-yl]-2,5-difluorobenzamide], the Dmax was over 90% and the DC50 lay within 0.002 to 0.01 µM.
Consider `CCOc1cc(-c2ccc(N3CCC(COCC(=O)NCCCCN4CCN(c5ccc6c(c5)CN(C5CCC(=O)NC5=O)C6=O)CC4)(NC(=O)c4cc(F)ccc4F)CC3)nc2)c2c(C#N)cnn2c1` (centres unmarked) [Example 31, N-[1-[5-(3-cyano-6-ethoxy-pyrazolo[1,5-a]pyridin-4-yl)-2-pyridyl]-4-[[2-[4-[4-[2-(2,6-dioxo-3-piperidyl)-1-oxo-isoindolin-5-yl]piperazin-1-yl]butylamino]-2-oxo-ethoxy]methyl]-4-piperidyl]-2,5-difluoro-benzamide], for which the Dmax fell in the range of 60 to 90% and the DC50 lay within 0.002 to 0.01 µM.
On to `CCOc1cc(-c2ccc(N3CCC(CN4CCN(C(=O)CCCCCCN5CCN(c6ccc7c(c6)CN(C6CCC(=O)NC6=O)C7=O)CC5)CC4)CC3)nc2)c2c(C#N)cnn2c1` (centres unmarked) [Example 125, 4-[6-(4-{[4-(7-{4-[2-(2,6-dioxopiperidin-3-yl)-1-oxo-2,3-dihydro-1H-isoindol-5-yl]piperazin-1-yl}heptanoyl)piperazin-1-yl]methyl}piperidin-1-yl)pyridin-3-yl]-6-ethoxypyrazolo[1,5-a]pyridine-3-carbonitrile], for which the Dmax is over 90% and the DC50 lay within 0.01 to 0.1 µM.
On to `CCOc1cc(-c2ccc(N3CCC(CN4CCC5(CCC(CC(=O)N6CCN(c7ccc8c(c7)CN(C7CCC(=O)NC7=O)C8=O)CC6)CC5)CC4)(NC(=O)c4cc(F)ccc4F)CC3)nc2)c2c(C#N)cnn2c1` (centres unmarked) [Example 124, N-[1-(5-{3-cyano-6-ethoxypyrazolo[1,5-a]pyridin-4-yl}pyridin-2-yl)-4-{[9-(2-{4-[2-(2,6-dioxopiperidin-3-yl)-1-oxo-2,3-dihydro-1H-isoindol-5-yl]piperazin-1-yl}-2-oxoethyl)-3-azaspiro[5.5]undecan-3-yl]methyl}piperidin-4-yl]-2,5-difluorobenzamide], for which the Dmax is over 90% and the DC50 was under 0.002 µM.
For the compound `CCOc1cc(-c2ccc(N3CCC(NC(=O)c4cc(F)ccc4F)(C(=O)NCCCCCCNc4ccc(N5CCC(=O)NC5=O)cc4)CC3)nc2)c2c(C#N)cnn2c1` [Example 148, 1-(5-{3-cyano-6-ethoxypyrazolo[1,5-a]pyridin-4-yl}pyridin-2-yl)-4-(2,5-difluorobenzamido)-N-(6-{[4-(2,4-dioxo-1,3-diazinan-1-yl)phenyl]amino}hexyl)piperidine-4-carboxamide], the Dmax fell in the range of 60 to 90% and the DC50 is 0.002 to 0.01 µM.
